Data set [1] is described as follows: Partition coefficient (logP). The conditions noted are these: octanol/water. Type of data set: physicochemical.
Data set [2] is described as follows: In vitro antibacterial activity was determined; antibacterial potency is less than 50% of that of lasalocid. The format is functional.
Data set [3] is described as follows: Dissociation constant was determined. The format is physicochemical.
Data set [4] is described as follows: In vitro antibacterial activity was determined. The format is functional.

Consider 13 compounds from ChEMBL document CHEMBL1123592, “Cluster significance analysis contrasted with three other quantitative structure-activity relationship methods” (J Med Chem, 1987).

One may read the logP as a log measure of how a compound divides between an organic and an aqueous phase. Usually pKa stands for the pH at which an ionisable group is half protonated. Low values mean a group that gives up its proton readily, high ones a group that holds its proton tightly.

The structures appear in SMILES notation.

Regarding `CCCCCCCCCC(=O)Oc1c(C)ccc(CC[C@@H](C)[C@H](O)[C@H](C)C(=O)[C@H](CC)[C@H]2O[C@](CC)([C@H]3CC[C@](O)(CC)[C@H](C)O3)C[C@@H]2C)c1C(=O)O`, the log partition coefficient (logP) in data set [1] worked out at 2.75. In data set [2], this compound returned an Activity of 0.
Taken in the same sequence, the figures for `CC[C@@H](C(=O)[C@@H](C)[C@@H](O)[C@H](C)CCc1c(/N=C/c2ccccc2)cc(C)c(O)c1C(=O)O)[C@H]1O[C@](CC)([C@H]2CC[C@](O)(CC)[C@H](C)O2)C[C@@H]1C` were 0.86 and 0.
Taken in the same sequence, the figures for `CC[C@@H](C(=O)[C@@H](C)[C@@H](O)[C@H](C)CCc1ccc(C)c(OC(=O)c2ccc(Br)cc2)c1C(=O)O)[C@H]1O[C@](CC)([C@H]2CC[C@](O)(CC)[C@H](C)O2)C[C@@H]1C` were 3.48 and 0.
`CC[C@@H](C(=O)[C@@H](C)[C@@H](O)[C@H](C)CCc1c([N+](=O)[O-])cc(C)c(O)c1C(=O)O)[C@H]1O[C@](CC)([C@H]2CC[C@](O)(CC)[C@H](C)O2)C[C@@H]1C` gave a logP in data set [1] of 2.46. Moreover, in data set [2], the Activity is recorded as 0. Also, the pKa in data set [3] came out at 2.4.
Take `CCCCCCCC(=O)Oc1c(C)ccc(CC[C@@H](C)[C@H](O)[C@H](C)C(=O)[C@H](CC)[C@H]2O[C@](CC)([C@H]3CC[C@](O)(CC)[C@H](C)O3)C[C@@H]2C)c1C(=O)O`: the logP in data set [1] came out at 2.21. This compound registered an Activity in data set [2] of 0.
Taken in the same sequence, the figures for `CCCCC(=O)Oc1c(C)ccc(CC[C@@H](C)[C@H](O)[C@H](C)C(=O)[C@H](CC)[C@H]2O[C@](CC)([C@H]3CC[C@](O)(CC)[C@H](C)O3)C[C@@H]2C)c1C(=O)O` were 2.08 and 0.
`CC[C@@H](C(=O)[C@@H](C)[C@@H](O)[C@H](C)CCc1c(NC(C)=O)cc(C)c(O)c1C(=O)O)[C@H]1O[C@](CC)([C@H]2CC[C@](O)(CC)[C@H](C)O2)C[C@@H]1C` showed a lipophilicity (logP) in data set [1] of 1.04. The compound further gave an Activity in data set [2] of 0. The same compound yielded a pKa in data set [3] of 4.3.
The corresponding values for `CC[C@@H](C(=O)[C@@H](C)[C@@H](O)[C@H](C)CCc1c(N)cc(C)c(O)c1C(=O)O)[C@H]1O[C@](CC)([C@H]2CC[C@](O)(CC)[C@H](C)O2)C[C@@H]1C` [AMINOLASALOCID] are 0.28, 0 and 6.
Take `CC[C@@H](C(=O)[C@@H](C)[C@@H](O)[C@H](C)CCc1c(Br)cc(C)c(O)c1C(=O)O)[C@H]1O[C@](CC)([C@H]2CC[C@](O)(CC)[C@H](C)O2)C[C@@H]1C` [BROMOLASALOCID]: the logP in data set [1] is 3.25. The Activity in data set [4] is recorded as 1. The pKa in data set [3] is 3.9.
The corresponding values for `CC[C@@H](C(=O)[C@@H](C)[C@@H](O)[C@H](C)CCc1c(Cl)cc(C)c(O)c1C(=O)O)[C@H]1O[C@](CC)([C@H]2CC[C@](O)(CC)[C@H](C)O2)C[C@@H]1C` [CHLOROLASALOCID] are 3.12, 1 and 4.
In turn, `CC[C@@H](C(=O)[C@@H](C)[C@@H](O)[C@H](C)CCc1c([N+]#N)cc(C)c(O)c1C(=O)O)[C@H]1O[C@](CC)([C@H]2CC[C@](O)(CC)[C@H](C)O2)C[C@@H]1C` [DIAZOLASALOCID] yielded an Activity in data set [2] of 0. In data set [3], this compound showed a pKa of 6.6.
Compound `CC[C@@H](C(=O)[C@@H](C)[C@@H](O)[C@H](C)CCc1c(I)cc(C)c(O)c1C(=O)O)[C@H]1O[C@](CC)([C@H]2CC[C@](O)(CC)[C@H](C)O2)C[C@@H]1C` [IODOLASALOCID] yielded a logP in data set [1] of 3.19. Also, the Activity in data set [4] turned out to be 1. In data set [3], this compound registered a pKa of 3.9.
Regarding `CC[C@@H](C(=O)[C@@H](C)[C@@H](O)[C@H](C)CCc1ccc(C)c(O)c1C(=O)O)[C@H]1O[C@](CC)([C@H]2CC[C@](O)(CC)[C@H](C)O2)C[C@@H]1C` [LASALOCID], the lipophilicity (logP) in data set [1] is 2.83. The Activity in data set [4] is listed as 1. In data set [3], this compound registered a pKa of 4.4.
